15 compounds from ChEMBL document CHEMBL5096200, “A short survey of dengue protease inhibitor development in the past 6 years (2015-2020) with an emphasis on similarities between DENV and SARS-CoV-2 proteases” (Bioorg Med Chem, 2021) can be followed below.

pEC50, pIC50: −log10 of the molar value. Converted amounts (≈) assume the structure as drawn.

A short description of data set [1]: Permeability of the compound at pH 7.4. Type of data set: ADME. The conditions noted are these: PAMPA, read-out: permeability.
Data set [2] is described as follows: Antiviral activity against DENV2 infected in human Huh-7 cells assessed as log reduction of viral titre measured at 1 uM measured after 72 hrs. The class given is functional, dengue virus type 2.
Data set [3] relates to dengue virus type 2. In words: Antiviral activity against DENV2. The class given is functional, organism-based.
Data set [4] in a line: Antiviral activity against DENV2 infected in human K562 cells assessed as log reduction of viral titre measured at 1 uM measured after 72 hrs. The class given is functional, dengue virus type 2.
The test system of data set [5] is dengue virus type 2. The data set can be described thus: Antiviral activity against DENV2 infected in human Huh-7 cells assessed as inhibition of viral replication measured after 72 hrs post infection by qRT-PCR analysis. Type of data set: functional, organism-based. As to conditions: Huh-7, 72 h.
Data set [6] has as its system dengue virus type 2. The data set can be described thus: Antiviral activity against DENV2 assessed as inhibition of viral replication. The class given is functional, organism-based.
The next data set has as its system dengue virus type 3. The data set can be described thus: Antiviral activity against DENV3 infected in human Huh-7 cells assessed as inhibition of viral replication measured after 72 hrs post infection by qRT-PCR analysis. Type of data set: functional, organism-based. The conditions noted are these: Huh-7, 72 h. (In general: Quantitative PCR measures a nucleic acid by following its amplification.)

The test system of a further data set is dengue virus type 4. In words: Antiviral activity against DENV4 infected in human Huh-7 cells assessed as inhibition of viral replication measured after 72 hrs post infection by qRT-PCR analysis. Type of data set: functional, organism-based. As to conditions: Huh-7, 72 h.
The subject of data set [7] is dengue virus type 1. The data set can be described thus: Antiviral activity against DENV1 infected in human Huh-7 cells assessed as inhibition of viral replication measured after 72 hrs post infection by qRT-PCR analysis. The class given is functional, organism-based. As to conditions: Huh-7, 72 h.
For data set [8], the target named is T1, Genome polyprotein (dengue virus type 2, UniProt P29990). In words: Inhibition of DENV2 NS2B-NS3 protease using Boc-Gly-Arg-Arg-MCA as substrate by fluorescence assay.
T1 sequence (P29990 1346-1475 limits assumed): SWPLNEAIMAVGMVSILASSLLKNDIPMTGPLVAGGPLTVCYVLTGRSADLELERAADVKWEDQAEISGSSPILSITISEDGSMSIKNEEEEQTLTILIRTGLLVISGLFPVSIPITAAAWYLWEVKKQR
T1 sequence (P29990 1476-2093 limits assumed): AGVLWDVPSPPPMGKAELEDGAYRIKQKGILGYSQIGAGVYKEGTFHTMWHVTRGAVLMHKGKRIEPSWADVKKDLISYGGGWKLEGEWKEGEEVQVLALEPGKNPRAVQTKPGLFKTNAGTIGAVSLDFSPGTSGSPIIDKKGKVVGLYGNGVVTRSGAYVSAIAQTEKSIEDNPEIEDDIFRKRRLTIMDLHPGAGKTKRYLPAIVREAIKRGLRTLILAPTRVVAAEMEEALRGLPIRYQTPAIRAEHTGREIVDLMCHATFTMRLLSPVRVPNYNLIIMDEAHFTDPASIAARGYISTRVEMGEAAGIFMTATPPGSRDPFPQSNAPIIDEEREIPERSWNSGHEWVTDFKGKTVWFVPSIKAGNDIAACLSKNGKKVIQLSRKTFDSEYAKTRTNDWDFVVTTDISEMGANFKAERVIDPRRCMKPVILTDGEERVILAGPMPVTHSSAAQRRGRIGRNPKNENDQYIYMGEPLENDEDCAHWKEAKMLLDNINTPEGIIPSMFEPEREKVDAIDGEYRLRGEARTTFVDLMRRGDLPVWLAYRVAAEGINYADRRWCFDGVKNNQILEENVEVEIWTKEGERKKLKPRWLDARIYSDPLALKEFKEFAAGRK
Data set [9] in a line: Inhibition of DENV2 protease infected in human HeLa cells. The conditions noted are these: Dengue virus. The class given is cell-based, dengue virus type 2.
Data set [10] deals with T1, Genome polyprotein. The data set can be described thus: Inhibition of DENV2 NS2B-NS3 protease using fluorophore-tagged Bz-nKRR-AMC as substrate preincubated for 30 mins followed by substrate addition measured after 90 mins by microplate reader analysis.
Data set [11] in a line: Antiviral activity against DENV2 infected in BHK-21 cells assessed as inhibition of viral replication. As to conditions: Dengue virus. Type of data set: functional, cell-based, dengue virus type 2.
In data set [12] the target is T1, Genome polyprotein. The data set can be described thus: Inhibition of DENV NS2B/NS3 pro.
The nature of data set [13]: Cytotoxicty against BHK-21 cells assessed as reduction in cell viability. The class given is toxicity, cell-based. As to conditions: Mesocricetus auratus (golden hamster).
The next data set deals with Dengue virus. The data set can be described thus: Antiviral activity against Dengue virus assessed as reduction in viral titer at 50 uM preincubated for 1 hr measured after 24 hrs post infection by plaque assay relative to control. On the set-up: scale not given: the % may be the effect or the level left. The conditions noted are these: time 25 hrs. Type of data set: functional.

The test system of data set [14] is dengue virus type 1. In words: Antiviral activity against Dengue virus 1 infected in african green monkey Vero cells assessed as reduction in viral titer preincubated for 1 hour with cells followed by viral infection and measured upto 7 days by plague assay relative to control. Type of data set: functional. As to conditions: time <= 7 day.
Data set [15] in a line: Antiviral activity against Dengue virus 2 infected in african green monkey Vero cells assessed as reduction in viral titer preincubated for 1 hour with cells followed by viral infection and measured upto 7 days by plague assay relative to control. The class given is functional, dengue virus type 2. The conditions noted are these: time <= 7 day.
The nature of data set [16]: Antiviral activity against Dengue virus 3 infected in african green monkey Vero cells assessed as reduction in viral titer preincubated for 1 hour with cells followed by viral infection and measured upto 7 days by plague assay relative to control. Type of data set: functional, dengue virus type 3. As to conditions: time <= 7 day.
Data set [17] deals with T1, Genome polyprotein. In words: Inhibition of DENV-2 NS2bNS3 pro.
A short description of data set [18]: Antiviral activity against Dengue virus 4 infected in african green monkey Vero cells assessed as reduction in viral titer preincubated for 1 hour with cells followed by viral infection and measured upto 7 days by plague assay relative to control. The conditions noted are these: time <= 7 day. Type of data set: functional, dengue virus type 4.
The target of data set [19] is T1, Genome polyprotein. In words: Inhibition of DENV-2 NS2B/NS3 protease expressed in Escherichia coli XL1 using Boc-GRR-MCA as substrate preincubated for 10 mins followed by substrate addition and measured after 60 mins.
A short description of data set [20]: Antiviral activity against DENV2 infected in human HepG2 cells measured after 48 hrs by plaque assay. Type of data set: functional, cell-based, dengue virus type 2. As to conditions: Dengue virus, HepG2, 48 h.
Data set [21] can be described thus: Antiviral activity against DENV2 infected in african green monkey Vero cells assessed as reduction of viral titre by viral plaque reduction assay. As to conditions: Dengue virus. The class given is functional, cell-based, dengue virus type 2. (In general: Plaques are areas of infected cells; plaque reduction assays count them against a control.)
The nature of data set [22]: Inhibition of West Nile Virus NS2B (residues 1393 to 1440 )/NS3pro (residues 1476 to 1687) protease expressed in Escherichia coli BL21 (DE3) using e Pyr- RTKR-AMC as substrate preincubated for 30 mins followed by substrate addition and incubated for 90 mins by fluorescence spectrophotometry assay.
Data set [23] can be described thus: Antiviral activity against DENV-2 NGC infected in african green monkey Vero B cells assessed as reduction in virus induced cytopathic effect. The class given is functional, cell-based, dengue virus type 2. The conditions noted are these: Dengue virus.
In data set [24] the test system is dengue virus type 2. In words: Antiviral activity against DENV-2 infected in human Huh-7 cells assessed as reduction in viral RNA treated for 3 days by qRT-PCR analysis. Type of data set: functional, organism-based. The conditions noted are these: Huh-7, 72 h.
Data set [25] concerns the target T1, Genome polyprotein. In words: Inhibition of DENV NS2B/NS3 protease transfected in human Huh-7 cells using 7-amino-4-methylcoumarin (AMC) fluorophore-linked peptide substrate Boc-GRR-AMC as substrate by fluoroscence based assay. The class given is cell-based.
Data set [26] is described as follows: Inhibition of DENV2 pro infected in human Huh-7 cells using 7-amino-4-methylcoumarin (AMC) fluorophore-linked Boc-GRR-AMC as substrate incubated for 30 mins. Type of data set: cell-based, dengue virus type 2. The conditions noted are these: Dengue virus, Huh-7, 0.5 h.
Data set [27] relates to dengue virus type 2. In words: Antiviral activity against DENV2 infected in human Huh-7 cells using Boc-GRR-AMC as substrate incubated for 30 mins by fluorescence spectroscopy assay. The class given is functional, organism-based. As to conditions: Huh-7, 0.5 h.
Data set [28] relates to dengue virus type 2. The data set can be described thus: Antiviral activity against DENV2 (TR1751) infected in BHK-21 cells assessed as reduction in virus titre at 100 uM by focus forming assay relative to control. Type of data set: functional. On the set-up: scale not given: the % may be the effect or the level left.
In data set [29] the test system is dengue virus type 2. The data set can be described thus: Antiviral activity against DENV2 (TR1751) infected in BHK-21 cells assessed as reduction in virus titre at 1000 uM by focus forming assay relative to control. Type of data set: functional. On the set-up: scale not given: the % may be the effect or the level left.

Broadly, the pEC50 is the EC50 on a negative log10 scale, so that one unit is a factor of ten. For the compound `O=C1c2c(O)ccc([N+](=O)[O-])c2C(=O)c2c([N+](=O)[O-])ccc(O)c21`, the Papp in data set [1] is 4.45 ×10⁻⁶ cm/s. Further, the “log(activity)” value in [2] and in data set [4] was more than 1 PFU/ml each time. In addition, the pEC50 in the data set on dengue virus type 2 [3] is 5.38.
With `CC(=O)O[C@H]1CC(C)(C)C(=C=C/C(C)=C/C=C/C=C/C=C(C)/C=C2C=C(/C=C/[C@@]34O[C@]3(C)C[C@@H](O)CC4(C)C)C(=O)O/2)[C@](C)(O)C1`, the pEC50 with dengue virus type 2 [5] is 5.35; with dengue virus type 2 [6] it was 5.35; in the data set with dengue virus type 3 it was 5.23; with dengue virus type 4, 5.23; in the data set with dengue virus type 1 [7] it was 5.23.
What is called pIC50 is the IC50 on a negative log10 scale, so that one unit is a factor of ten. At Genome polyprotein [8], `CCCCC1C(C(=O)N(C)OC)C(c2ccccc2)CCN1C(=O)OC(C)(C)C` (centres undefined) gave a pIC50 of 3.59.
Consider `CCCCCC(=O)N[C@H](C(=O)NCc1ccc(NC(=N)N)cc1)c1ccc(OCc2ccccc2)cc1`, for which the pEC50 in data set [9] is 6.31.
Consider `COc1ccc(S(=O)(=O)n2nc(Oc3ccc(-c4ccccc4)cc3)cc2N)cc1`, for which, at Genome polyprotein [10], the pIC50 is 5.54.
Broadly, the IC50 is the midpoint of a concentration-inhibition curve. As to `Cc1cc(O)c(S(=O)(=O)O)cc1Cc1cc(S(=O)(=O)O)c(O)c(Cc2cc(S(=O)(=O)O)c(O)cc2C)c1C`, the IC50 was 4.99 µg/mL (≈ 8.48 µM) in data set [11] and 459 µg/mL (≈ 781 µM) in [13]. At Genome polyprotein [12], this compound showed a pIC50 of 6.09.
For the compound `C[C@@H](CC[C@H](O)[C@](C)(O)CO)[C@@H]1CC[C@]2(C)C3=CC[C@@H]4C(C)(C)C(=O)CC[C@@]4(C)C3=CC[C@@]12C`, the Activity in the data set on Dengue virus was 40%.
With `N#C/C(=C/c1ccc(-c2ccc(C(=O)O)cc2)s1)c1nc2cc(Cl)ccc2[nH]1`, the “inhibition (INH)” value in the data set on dengue virus type 1 [14] stood at 50%; in [15], 83%; in data set [16] it was 75%; in data set [18], 73%. Also, the pIC50 against Genome polyprotein [17] was 5.23.
`CCCCC(=O)Nc1nc(SC(=O)CCCC)c2nc[nH]c2n1` had a pIC50 against Genome polyprotein [19] of 6.42.
`CCCCC1C(C(=O)OCC)C(c2ccccc2)CCN1C(=O)OC(C)(C)C` (centres undefined) gave a pIC50 against Genome polyprotein [8] of 3.67. The compound further gave a pEC50 in data set [20] of 5.49.
For the compound `O=C(O)c1ccccc1-c1c2cc(I)c(=O)c(I)c-2oc2c(I)c(O)c(I)cc12`, in data set [21], the pEC50 was 5.92.
The compound `COc1ccc(S(=O)(=O)n2nc(OC(=O)c3ccccc3)cc2N)cc1` gave a pIC50 in data set [22] of 6.98.
Turning to `Cc1c(O)cccc1C(=O)N[C@@H](CSc1ccccc1)[C@H](O)CN1C[C@H]2CCCC[C@H]2C[C@H]1C(=O)NC(C)(C)C`, the pEC50 in [23] was 5.46.
For the compound `COC(=O)c1[nH]c2ccc(Cl)cc2c1C(=O)c1cc(OC)c(OC)c(OC)c1`, the pEC50 in the data set with dengue virus type 2 [24] is 5.34; at Genome polyprotein [25], 5.33; in the data set with dengue virus type 2 [6] it was 5.34; in [26], 5.17; with dengue virus type 2 [27], 5.34.
For the compound `Oc1cc(O)c2c(c1)O[C@H](c1ccc(O)c(O)c1)[C@H](O)C2` [(-)-EPICATECHIN], the Activity with dengue virus type 2 [28] turned out to be 77.7%; in the data set with dengue virus type 2 [29] it was 66.2%.
